Experimental data from BigSolDB 2.1.

Nc1ccc(Oc2ccc(N)cc2)cc1
solubility (mole fraction)
Details | 283.15 K | 288.15 K | 293.15 K | 298.15 K | 303.15 K | 308.15 K | 313.15 K | 318.15 K | 323.15 K
in 2-ethoxyethanol | 0.0274 | 0.0288 | 0.0306 | 0.0329 | 0.0358 | 0.0394 | 0.0436 | 0.0486 | 0.0544
in DMAc | 0.133 | 0.136 | 0.139 | 0.143 | 0.147 | 0.152 | 0.156 | 0.162 | 0.168
in DMF | 0.104 | 0.107 | 0.11 | 0.115 | 0.12 | 0.126 | 0.132 | 0.138 | 0.145
in DMSO | – | – | – | 0.153 | 0.159 | 0.165 | 0.172 | 0.179 | 0.187
in ethanol | 0.000434 | 0.000549 | 0.0007 | 0.00089 | 0.00113 | 0.00143 | 0.00176 | 0.00217 | 0.0027
in methanol | 0.00114 | 0.00132 | 0.00153 | 0.00178 | 0.00208 | 0.00246 | 0.00293 | 0.00349 | 0.00416
